Assay results as given in patent publication US8022043B2, “Ceramide derivatives as modulators of immunity and autoimmunity” (Albert Einstein College of Medicine of Yeshiva University, priority 2004, dated 2011).

Experiments:
iNKT cells = test: In vitro cytokine modulation, murine cell assay system; format: cell-based
[1] = system: T cell antigen receptors of human NKT cells; test: Glycolipid human CD1d tetramer binding; details: normal blood specimens
NK T cells = test: NK T cell activation screens (Example, FIG. 5 and Table 1); format: cell-based; details: see Example
Description: Using these methods, we produced more than 60 novel amino substituted analogues of KRN7000. These were screened in a functional assay that assessed the ability of the compounds to activate NK T cell hybridomas in the presence of various types of cells expressing CD1d, or in the presence of recombinant CD1d proteins bound to the tissue culture plate surface (FIG. 5).

human NKT cell clones = test: Human in vitro NKT cell assay system; format: cell-based; details: proliferative responses and cytokine secretion
Description: For example, DB03-4 and DB03-5 are active in stimulation of human NKT cell clones in vitro, and elicits proliferative responses and cytokine secretion when evaluated using culture systems previously established in the literature (See, e.g., Spada F M, Sugita M, Watts G F M, Koezuka Y, and Porcelli S A. Low expression but potent antigen presenting function of CD1d on monocyte lineage cells, Eur. J. Immunol., 30:3468-3477 (2000), and Spada F M, Koezuka Y, Porcelli S A, CD1d-restricted recognition of synthetic glycolipid antigens by human NK T cells. J Exp Med; 188:1529-1534 (1998), see also, Lee P T et al., J Clin Invest., 2002 September; 110(6):793-800. […] Acad. Sci. (USA), 102:3383-8 (2005)).

C57BL/6 mice = test: Serum IL-4 and IFNγ after a single i.p. injection; format: in vivo
Experimental: Serum levels of L-4 and IFNγ after a single injection of DB01-1, DB03-4, or DB03-5 are shown. C57BL/6 mice (11-13 weeks old) were given a single i.p. injection of 4.8 nanomoles of the compounds or phosphate buffered saline (PBS)/vehicle control. Serum cytokine levels were measured 2 and 20 hours later by capture ELISA. Bars show means of three mice, with standard deviation. Note that DB01-1 has nearly identical structure to KRN7000 (C24 fatty acid as compared to C26) and has activity that is indistinguishable from KRN7000 in multiple bioassays. We use DB01-1 as a “KRN7000 mimic” because it has been synthesized by our group and is readily available for our studies, and KRN7000 was unavailable due to license restrictions.
A most intriguing property of KRN7000 analogues is that in some cases they may elicit immune responses that are qualitatively different from those that occur following stimulation with the parent compound. […] This selective activation of IL-4 production by NK T cells was proposed to be the basis for the enhanced therapeutic effects of OCH in the EAE model of central nervous system autoimmune disease. We have observed a similar in vivo effect on the nature of the NK T cell response using several of our ceramide-like glycolipids. […] These responses are similar to those seen for DB01-1, an analogue that is structurally almost identical to KRN7000 (C24 fatty acid instead of C26, otherwise identical) and indistinguishable in terms of its activity in our hands. […] This selective IL-4 induction is virtually identical to that reported for the OCH analogue, and thus illustrates the potential for amino substituted analogues of KRN7000 to induce qualitatively different immunomodulatory effects in vivo. The results reported in FIG. 9 were obtained by measuring serum levels of IL-4 and IFNγ after administering a single injection of […], DB03-4, or DB03-5 to C57BL/6 mice. C57BL/6 mice (11-13 weeks old) were given a single i.p. injection of 4.8 nanomoles of the ceramide-like glycolipids or PBS/vehicle control. Serum cytokine levels were measured 2 and 20 hours later by capture ELISA. Bars show means of three mice, with standard deviation.
For experiments involving in vivo treatment of mice with the ceramide-like glycolipids, the ceramide-like glycolipids were administered by i.p. or i.v. injection in 0.2 ml PBS+0.025% Tween-20, or in vehicle alone. A typical dose is about 4-5 nmoles per animal per injection. Representative references for administering an α-galactosyl ceramide to mice by i.p., i.v. or p.o. routes are S. Sharif et al., Activation of natural killer T cells by alpha-galactosylceramide treatment prevents the onset and recurrence of autoimmune Type 1 diabetes, Nat. Med., Sep. 7, 2001, (9):1057-62 and K. Miyamoto et al., A synthetic glycolipid prevents autoimmune encephalomyelitis by inducing TH2 bias of natural killer T cells, Nature. Oct. 4, 2001, 413(6855):5314.

NOD mice = test: Prevention of type 1 diabetes in NOD mice; format: in vivo; details: i.p. once per week, 200 micrograms/kg; comparator DB01-1 (indicated as KRN7000)
Experimental: Cohorts of 6-8 female NOD mice were treated with placebo (vehicle) or DB01-1 (indicated as KRN7000), DB03-4 or DB03-5 injections once weekly beginning at 4-5 weeks of age. Treatment was discontinued after 5 injections (DB03-4) or 7 injections (DB03-5). Top graphs show incidence of glycosuria, and bottom graphs show survival in each cohort.
Given the widely held belief that selective augmentation of IL-4 production can be protective or therapeutic in the setting of many autoimmune diseases, we have initiated studies to examine the efficacy of compounds such as DB03-4 and DB03-5 in diabetes prone NOD mice. […] The results reported in FIG. 10 were obtained by treating three groups, each consisting of 9-12 female NOD mice, starting from age 5 weeks with a ceramide-like glycolipid. The indicated ceramide-like glycolipids (DB03-4, DB03-5, or KRN7000) were injected i.p. once per week in a dose of 200 micrograms/kg. Treatment was discontinued at 11 weeks of age, and the mice were monitored weekly for glucosuria (top) and death (bottom).
For experiments involving in vivo treatment of mice with the ceramide-like glycolipids, the ceramide-like glycolipids were administered by i.p. or i.v. injection in 0.2 ml PBS+0.025% Tween-20, or in vehicle alone. A typical dose is about 4-5 nmoles per animal per injection. […]

Structure (SMILES): CCCCC/C=C\C/C=C\CCCCCCCCCC(=O)N[C@@H](COC1OC(CO)C(O)C(O)C1O)[C@H](O)[C@H](O)CCCCCCCCCCCCCC (stereo partly shown) [DB03-4]
- cytokine bias (iNKT cells): bias towards inducing Type 2 cytokines
- IL-4 induction (iNKT cells; in vitro): strong inducers of IL-4
- IFNγ induction (iNKT cells; in vitro, DB03-3: in some murine strains): blunted IFNγ
- in vitro activity at modulating cytokines (iNKT cells; murine cell assay system): show in vitro activity
- binding of glycolipid human CD1d tetramers to human NKT cells [1]: bind strongly
- effectiveness of compound (NK T cells): Particularly effective
- stimulation of human NKT cell clones (human NKT cell clones): active
- serum IFNγ response (C57BL/6 mice; 20 hours after single i.p. injection of 4.8 nanomoles): not seen
- serum IL-4 response (C57BL/6 mice; two hours after single i.p. injection of 4.8 nanomoles): strong IL-4 response
- prevention of diabetes in NOD mice compared with KRN7000 (NOD mice): superior to KRN7000
